Results reported in PubChem BioAssay AID1259407 (Chemical Carcinogenesis Research Information System (CCRIS), 2018).
Activity calls are given as the source filed them. How the calls were made is not given here.

Tested on: CCRIS mutagenicity, Ames/micronucleus/aberration tests
Assay: CCRIS mutagenicity studies
[1] = Test System: AMES SALMONELLA TYPHIMURIUM, Strain/Indicator: TA98, Metabolic Activation: NONE, Method: PREINCUBATION
[2] = Test System: AMES SALMONELLA TYPHIMURIUM, Strain/Indicator: TA100, Metabolic Activation: NONE, Method: PREINCUBATION
[3] = Test System: AMES SALMONELLA TYPHIMURIUM, Strain/Indicator: TA100, Metabolic Activation: NONE, Method: STANDARD PLATE

For `COc1ccc(NC(C)=O)cc1N`, the mutagenic call (End Point: IN VITRO CHROMOSOMAL ABERRATIONS, Test System: CHL CELLS, Metabolic Activation: RAT, LIVER, S-9, SODIUM PHENOBARBITAL AND 5,6-BENZOFLAVONE) was “active; positive (structural changes); authors report equivocal results for ploidy chang”, the mutagenic call [1] was “inactive; negative” and the mutagenic call (Test System: AMES SALMONELLA TYPHIMURIUM, Strain/Indicator: TA98, Metabolic Activation: RAT, LIVER, S-9, PHENOBARBITAL AND BETA-NAPHTHOFLAVONE, Method: PREINCUBATION) was “active; positive”. The mutagenic call [2] was “inactive; negative” and the mutagenic call (Test System: AMES SALMONELLA TYPHIMURIUM, Strain/Indicator: TA100, Metabolic Activation: RAT, LIVER, S-9, PHENOBARBITAL AND BETA-NAPHTHOFLAVONE, Method: PREINCUBATION) was “active; positive”.
With `CC(=O)ON(OCc1ccc(Cl)cc1)C(=O)c1ccccc1` the mutagenic call [3] was “active; positive” and the mutagenic call (Test System: AMES SALMONELLA TYPHIMURIUM, Strain/Indicator: TA100, Metabolic Activation: RAT, S-9, AROCLOR, Method: STANDARD PLATE) was “active; positive”.
In the case of `CC(C)C(=O)Nc1ccccc1`, the mutagenic call [3] is reported as “inactive; negative”.
`CC1OC1C` (configuration not stated) was tested, and the mutagenic call (Test System: AMES SALMONELLA TYPHIMURIUM, Strain/Indicator: TA97, Metabolic Activation: HAMSTER, LIVER, S-9, AROCLOR 1254 (30%), Method: PREINCUBATION) was “inactive; negative”, the mutagenic call (Test System: AMES SALMONELLA TYPHIMURIUM, Strain/Indicator: TA97, Metabolic Activation: NONE, Method: PREINCUBATION) was “inactive; negative” and the mutagenic call (Test System: AMES SALMONELLA TYPHIMURIUM, Strain/Indicator: TA97, Metabolic Activation: RAT, LIVER, S-9, AROCLOR 1254 (30%), Method: PREINCUBATION) was “inactive; negative”. For the same molecule, the mutagenic call (Test System: AMES SALMONELLA TYPHIMURIUM, Strain/Indicator: TA98, Metabolic Activation: HAMSTER, LIVER, S-9, AROCLOR 1254 (30%), Method: PREINCUBATION) was “inactive; negative”, the mutagenic call [1] was “inactive; negative” and the mutagenic call (Test System: AMES SALMONELLA TYPHIMURIUM, Strain/Indicator: TA98, Metabolic Activation: RAT, LIVER, S-9, AROCLOR 1254 (30%), Method: PREINCUBATION) was “inactive; negative”. The mutagenic call (Test System: AMES SALMONELLA TYPHIMURIUM, Strain/Indicator: TA100, Metabolic Activation: HAMSTER, LIVER, S-9, AROCLOR 1254 (30%), Method: PREINCUBATION) was “inactive; negative”, the mutagenic call [2] was “inactive; negative” and the mutagenic call (Test System: AMES SALMONELLA TYPHIMURIUM, Strain/Indicator: TA100, Metabolic Activation: RAT, LIVER, S-9, AROCLOR 1254 (30%), Method: PREINCUBATION) was “inactive; negative”. The mutagenic call (Test System: AMES SALMONELLA TYPHIMURIUM, Strain/Indicator: TA1535, Metabolic Activation: HAMSTER, LIVER, S-9, AROCLOR 1254 (30%), Method: PREINCUBATION) was “active; positive”, the mutagenic call (Test System: AMES SALMONELLA TYPHIMURIUM, Strain/Indicator: TA1535, Metabolic Activation: RAT, LIVER, S-9, AROCLOR 1254 (30%), Method: PREINCUBATION) was “active; positive” and the mutagenic call (Test System: AMES SALMONELLA TYPHIMURIUM, Strain/Indicator: TA1537, Metabolic Activation: HAMSTER, LIVER, S-9, AROCLOR 1254 (30%), Method: PREINCUBATION) was “inactive; negative”. For the same molecule, the mutagenic call (Test System: AMES SALMONELLA TYPHIMURIUM, Strain/Indicator: TA1537, Metabolic Activation: NONE, Method: PREINCUBATION) was “inactive; negative” and the mutagenic call (Test System: AMES SALMONELLA TYPHIMURIUM, Strain/Indicator: TA1537, Metabolic Activation: RAT, LIVER, S-9, AROCLOR 1254 (30%), Method: PREINCUBATION) was “inactive; negative”.
